# Measured values as given in US20110245316A1, “PREVENTION OR DELAY OF ONSET OF ORAL MUCOSITIS” (SCICLONE PHARMACEUTICALS, INC., priority 2010, published 2011).
# How the values were obtained:
# [1] = system: cytokines and gene expression in CRT-treated HNC patients; assay: Cytokine and gene microarray analyses of patient samples; type: in vivo, human
# Protocol: SCV-07 efficacy, dosing and scheduling parameters were assessed in hamster models of acute, fractionated and concomitant chemoradiation (CRT). […] A multicenter, prospective, blinded, randomized trial evaluated SCV-07's ability to alter OM in CRT-treated HNC patients (n=57). Cytokine and gene microarray analyses were performed for samples obtained before and on the last radiation day.
# [2] = system: human head and neck cancer (HNC) lines; assay: Xenograft studies: CRT anti-tumor response; type: in vivo
# [3] = system: patients receiving CT/RT for head and neck cancer; assay: Phase 2 trial: safety and tolerability; type: in vivo, human; details: 0.02 or 0.1 mg/kg on each radiation day for up to 7 weeks
# Excerpt: OM is a painful, debilitating, and costly toxicity of different chemoradiotherapy (CT/RT) regimens used to treat head and neck cancer. This trial is a phase 2, randomized, double-blind, dose-ranging, placebo-controlled three-arm study in patients receiving CT/RT for the treatment of head and neck cancer, to assess the safety and tolerability of γ-D-glutamyl-L-tryptophan (SCV-07) as well as its efficacy in delaying the onset of severe OM as assessed by the WHO Oral Mucositis Scale.
# 59 eligible patients with recently diagnosed, treatment naïve, pathologically-confirmed, non-metastatic squamous cell carcinoma of the oral cavity, oropharynx, hypopharynx or larynx were enrolled and treated with a concomitant regimen of CT/RT consisting of a continuous course of external beam irradiation (IMRT eligible) with a minimum cumulative dose of 50 Gray (Gy) and cisplatin monotherapy administered using standard weekly or tri-weekly dosing regimens (80-100 mg/m^2 administered on Days 0, 21 and 42) or weekly (30-40 mg/m^2). At least two ‘at risk’ intraoral sites were included in the radiation fields and received a cumulative RT dose of at least 50 Gy. Subjects were equally randomized to receive either placebo or one of two doses of γ-D-glutamyl-L-tryptophan (0.02 or 0.1 mg/kg) on each radiation day for up to 7 weeks.
# [4] = persons who clinically responded to SCV-07
structure (smiles),measurement,setting,value
"N[C@H](CCC(=O)N[C@@H](Cc1c[nH]c2ccccc12)C(=O)O)C(=O)O [SCV-07, γ-D-glutamyl-L-tryptophan]",ICAM,[1]; SCV-07-treated patients,Increases
same,IL-1alpha,[1]; SCV-07-treated patients,Decreases
same,IL-5,[1]; SCV-07-treated patients,Decreases
same,IL-12,[1]; SCV-07-treated patients,Increases
same,IL-15,[1]; SCV-07-treated patients,Decreases
same,MIF,[1]; SCV-07-treated patients,Increases
same,MIP-1beta,[1]; SCV-07-treated patients,Increases
same,MIP-3 alpha,[1]; SCV-07-treated patients,Decreases
same,Pro-inflammatory cytokine levels,[1]; SCV-07-treated patients,reduced
same,TNF-alpha,[1]; SCV-07-treated patients,Decreases
same,VCAM,[1]; SCV-07-treated patients,Increases
same,macrophage-associated cytokines,[1]; SCV-07-treated patients,Elevated
same,Gene expression (microarray),[1]; SCV-07 vs placebo patients,Gene expression differences were noted
same,IL-21,[1]; [4],increases
same,MIF,[1]; [4],increases
same,VEGF,[1]; [4],decrease
same,impact on CRT anti-tumor response,[2],did not impact CRT anti-tumor response
same,safety and tolerability,[3],safe and well tolerated with no drug-related serious adverse events reported
same,safety and tolerability,[3]; listed as γ-D-glutamyl-L-tryptophan,safe and well tolerated
